From publication PMC2994747, “Molecular Characterization of c-Abl/c-Src Kinase Inhibitors Targeted against Murine Tumour Progenitor Cells that Express Stem Cell Markers” (PLoS ONE, 2010)

What was measured:
Experiment in all cases: Whole genome expression analysis (Affymetrix microarray)
[1] = test system: A549; assay type: cell-based, human
Protocol: (§1) The cells were harvested and RNA was isolated using RNeasy Mini Kit (Qiagen, Hilden, Germany) according to the instructions of the manufacturer. The isolated RNA (250 ng) was processed further using standard protocols as described recently with the exception of the 3′ IVT Express Kit (Affymetrix, High Wycombe, UK) that was utilized according to instructions. Quality control of cRNA was done with the Agilent 2100 Bioanalyzer (Agilent Tech according to manufacturer's protocols. Following fragmentation, cRNA of each sample was hybridized to Affymetrix GeneChip® Mouse Genome 430 2.0 or Human Genome U133 Plus 2.0 and scanned with an Affymetrix 3000 7G scanner.
(§2) The resultant data was normalized by Probe Logarithmic Intensity Error Estimation (PLIER) algorithm. Statistical analysis was carried out with the ArrayTrack software (National Center for Toxicological Research/FDA, Jefferson, AR, USA) using SAM algorithm.

[2] = test system: CaCo2; assay type: cell-based, human
Protocol: as §1, §2

[3] = test system: HepG2; assay type: cell-based, human
Protocol: as §1, §2

[4] = test system: GammaA3; assay type: cell-based, mouse
Protocol: as §1, §2

[5] = IC50 concentration, 96 h, SAM FDR<0.01, FC>2

## Fc1ccccc1CNc1ncnc2c1cnn2CC(Cl)c1ccc(Br)cc1 (stereo not shown) [Si162]
[1]
  Acta2 (actin, alpha 2, smooth muscle, aorta) regulated gene, Si162 vs Ktr FC: 2.46
  Birc5 (baculoviral IAP repeat-containing 5) regulated gene, Si162 vs Ktr FC: -6.60
  Capn12 (calpain 12) regulated gene, Si162 vs Ktr FC: 1.16
  Ccna2 (cyclin A2) regulated gene, Si162 vs Ktr FC: -6.93
  Ccnb1 (cyclin B1) regulated gene, Si162 vs Ktr FC: -5.43
  Ccnb2 (cyclin B2) regulated gene, Si162 vs Ktr FC: -6.15
  Cdc2 (cell division cycle 2 (Cdk1)) regulated gene, Si162 vs Ktr FC: -7.06
  Cdh1 (cadherin 1, type 1, E-cadherin (epithelial)) regulated gene, Si162 vs Ktr FC: 1.36
  Cdkn1a (cyclin-dependent kinase inhibitor 1A (p21Cip1)) regulated gene, Si162 vs Ktr FC: 2.54
  Cdkn3 (cyclin-dependent kinase inhibitor 3) regulated gene, Si162 vs Ktr FC: -5.90
  Ceacam6 (carcinoembryonic antigen-related cell adhesion molecule 6) regulated gene, Si162 vs Ktr FC: 3.24
  Cenpa (centromere protein A) regulated gene, Si162 vs Ktr FC: -6.17
  Ctsb (cathepsin B) regulated gene, Si162 vs Ktr FC: 1.38
  Dgka (diacylglycerol kinase, alpha 80kDa) regulated gene, Si162 vs Ktr FC: 1.92
  E2F1 (E2F transcription factor 1) regulated gene, Si162 vs Ktr FC: -6.54
  Fas (Fas (TNF receptor superfamily, member 6)) regulated gene, Si162 vs Ktr FC: 2.18
  Fn1 (fibronectin 1) regulated gene, Si162 vs Ktr FC: 1.40
  Gadd45a (growth arrest and DNA-damage-inducible, alpha) regulated gene, Si162 vs Ktr FC: 1.46
  Gsk3b (glycogen synthase kinase 3 beta) regulated gene, Si162 vs Ktr FC: 1.51
  Inpp5d (inositol polyphosphate-5-phosphatase, 145kDa) regulated gene, Si162 vs Ktr FC: 2.27
  Itgb4 (integrin, beta 4) regulated gene, Si162 vs Ktr FC: 1.48
  Jun (jun oncogene) regulated gene, Si162 vs Ktr FC: 1.36
  Mdm2 (Mdm2 p53 binding protein homolog (mouse)) regulated gene, Si162 vs Ktr FC: 1.96
  Plk1 (polo-like kinase 1 (Drosophila)) regulated gene, Si162 vs Ktr FC: -2.12
  Ptgs2 (prostaglandin-endoperoxide synthase 2) regulated gene, Si162 vs Ktr FC: 1.27
  Tgfb1i1 (transforming growth factor beta 1 induced transcript 1) regulated gene, Si162 vs Ktr FC: 1.15
  Tuba1a (tubulin, alpha 1a) regulated gene, Si162 vs Ktr FC: 1.06
  Vtn (vitronectin) regulated gene, Si162 vs Ktr FC: 4.54
[1]; [5]
  Significantly differentially regulated genes, downregulated (number): 472
  Significantly differentially regulated genes, upregulated (number): 785
[2]
  Cav1 (caveolin 1, caveolae protein, 22kDa) regulated gene, Si162 vs Ktr FC: 2.45
  Ceacam6 (carcinoembryonic antigen-related cell adhesion molecule 6) regulated gene, Si162 vs Ktr FC: 1.49
  Mmp1 (matrix metallopeptidase 1 (interstitial collagenase)) regulated gene, Si162 vs Ktr FC: 1.71
  Pmaip1 (phorbol-12-myristate-13-acetate-induced protein 1 (Noxa)) regulated gene, Si162 vs Ktr FC: 1.12
  Tuba1a (tubulin, alpha 1a) regulated gene, Si162 vs Ktr FC: 1.01
  Vim (vimentin) regulated gene, Si162 vs Ktr FC: 1.80
[2]; [5]
  Significantly differentially regulated genes, downregulated (number): 6
  Significantly differentially regulated genes, upregulated (number): 75
[3]
  Akt2 (v-akt murine thymoma viral oncogene homolog 2) regulated gene, Si162 vs Ktr FC: -4.47
  Bcl2l1 (BCL2-like 1) regulated gene, Si162 vs Ktr FC: 1.08
  Birc5 (baculoviral IAP repeat-containing 5) regulated gene, Si162 vs Ktr FC: -4.98
  Capn2 (calpain 2, (m/II) large subunit) regulated gene, Si162 vs Ktr FC: 2.34
  Casp3 (caspase 3, apoptosis-related cysteine peptidase) regulated gene, Si162 vs Ktr FC: 1.08
  Casp6 (caspase 6, apoptosis-related cysteine peptidase) regulated gene, Si162 vs Ktr FC: 1.01
  Cdc2 (cell division cycle 2 (Cdk1)) regulated gene, Si162 vs Ktr FC: -5.34
  Cdh1 (cadherin 1, type 1, E-cadherin (epithelial)) regulated gene, Si162 vs Ktr FC: 1.32
  Cdkn1a (cyclin-dependent kinase inhibitor 1A (p21Cip1)) regulated gene, Si162 vs Ktr FC: 1.62
  Cdkn2a (cyclin-dependent kinase inhibitor 2A (p16)) regulated gene, Si162 vs Ktr FC: 2.03
  Cdkn2b (cyclin-dependent kinase inhibitor 2B (p15)) regulated gene, Si162 vs Ktr FC: 3.43
  Cenpa (centromere protein A) regulated gene, Si162 vs Ktr FC: -4.35
  Egfr (epidermal growth factor receptor) regulated gene, Si162 vs Ktr FC: 1.36
  Fas (Fas (TNF receptor superfamily, member 6)) regulated gene, Si162 vs Ktr FC: 2.46
  Grb10 (growth factor receptor-bound protein 10) regulated gene, Si162 vs Ktr FC: 1.12
  Jun (jun oncogene) regulated gene, Si162 vs Ktr FC: 1.14
  Mdm2 (Mdm2 p53 binding protein homolog (mouse)) regulated gene, Si162 vs Ktr FC: 1.15
  Mmp3 (matrix metallopeptidase 3 (stromelysin 1, progelatinase)) regulated gene, Si162 vs Ktr FC: 4.17
  Pdgfrb (platelet-derived growth factor receptor, beta polypeptide) regulated gene, Si162 vs Ktr FC: -4.81
  Pmaip1 (phorbol-12-myristate-13-acetate-induced protein 1 (Noxa)) regulated gene, Si162 vs Ktr FC: 1.37
  Tgfb1i1 (transforming growth factor beta 1 induced transcript 1) regulated gene, Si162 vs Ktr FC: 1.86
  Tuba1a (tubulin, alpha 1a) regulated gene, Si162 vs Ktr FC: 4.28
[3]; IC50 concentration, 96 h
  Differentially expressed genes, total (number): more than 1400
[3]; [5]
  Significantly differentially regulated genes, downregulated (number): 707
  Significantly differentially regulated genes, upregulated (number): 717
[4]
  Actg2 (actin, gamma 2, smooth muscle, enteric) regulated gene, Si162 vs Ktr FC: -4.78
  Bcl2l11 (BCL2-like 11 (apoptosis facilitator) (Bim)) regulated gene, Si162 vs Ktr FC: 1.33
  Birc5 (baculoviral IAP repeat-containing 5) regulated gene, Si162 vs Ktr FC: -3.04
  Capn5 (calpain 5) regulated gene, Si162 vs Ktr FC: 1.96
  Casp6 (caspase 6, apoptosis-related cysteine peptidase) regulated gene, Si162 vs Ktr FC: 1.07
  Ccna2 (cyclin A2) regulated gene, Si162 vs Ktr FC: -2.93
  Ccnb2 (cyclin B2) regulated gene, Si162 vs Ktr FC: -2.44
